Like-named read-outs stand apart in the source and are kept apart here.
How the values were obtained:
[1] = target: T1, DCAF15-RBM39 ternary complex (Homo sapiens, UniProt Q14498+Q66K64); test: Compound-induced DCAF15-RBM39 ternary complex formation, AlphaLISA; assay type: biochemical
T1 construct: (RRM2)
Protocol: Compound-induced DCAF15-RBM39 ternary complex formation was monitored using AlphaLISA® assays (Perkin Elmer, Waltham, MA). […] 9.8 ul of this protein mixture was then mixed with the compounds in the assay plate and incubated for one hour at room temperature. Reaction mixtures with no compounds added were included as negative controls, while a His-tagged and biotinylated GST protein was included to track general assay performance. […] The beads were then added to the assay plate sequentially with incubation at room temperature for 1-2 hours after each addition.

DCAF15 = DCAF15 (Homo sapiens, UniProt Q66K64); test: Binary interaction between compounds and DCAF15, HTRF competition assay; assay type: binding; conditions: HTRF competition with Alexa Fluor 647 tracer, His-tagged DCAF15 complex; read-out: DCAF15 IC50
DCAF15, sequence (Q66K64 whole entry): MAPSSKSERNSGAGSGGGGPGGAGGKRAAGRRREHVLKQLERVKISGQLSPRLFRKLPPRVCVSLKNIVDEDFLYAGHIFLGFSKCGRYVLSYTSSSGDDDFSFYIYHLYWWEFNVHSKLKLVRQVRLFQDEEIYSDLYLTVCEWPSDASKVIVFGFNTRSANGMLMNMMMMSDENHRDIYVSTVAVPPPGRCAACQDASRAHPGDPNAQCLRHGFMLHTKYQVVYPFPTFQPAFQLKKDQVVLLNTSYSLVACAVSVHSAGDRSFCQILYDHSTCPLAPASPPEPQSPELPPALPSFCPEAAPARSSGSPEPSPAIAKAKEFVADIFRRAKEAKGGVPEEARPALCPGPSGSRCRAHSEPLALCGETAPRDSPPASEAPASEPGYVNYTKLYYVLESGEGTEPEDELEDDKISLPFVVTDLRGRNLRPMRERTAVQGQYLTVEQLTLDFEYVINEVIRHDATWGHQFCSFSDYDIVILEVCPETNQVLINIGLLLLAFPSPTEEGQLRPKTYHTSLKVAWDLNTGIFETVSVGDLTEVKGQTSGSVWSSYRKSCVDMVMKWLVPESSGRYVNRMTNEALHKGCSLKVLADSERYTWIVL
DCAF15, sequence (Q16531 whole entry partner): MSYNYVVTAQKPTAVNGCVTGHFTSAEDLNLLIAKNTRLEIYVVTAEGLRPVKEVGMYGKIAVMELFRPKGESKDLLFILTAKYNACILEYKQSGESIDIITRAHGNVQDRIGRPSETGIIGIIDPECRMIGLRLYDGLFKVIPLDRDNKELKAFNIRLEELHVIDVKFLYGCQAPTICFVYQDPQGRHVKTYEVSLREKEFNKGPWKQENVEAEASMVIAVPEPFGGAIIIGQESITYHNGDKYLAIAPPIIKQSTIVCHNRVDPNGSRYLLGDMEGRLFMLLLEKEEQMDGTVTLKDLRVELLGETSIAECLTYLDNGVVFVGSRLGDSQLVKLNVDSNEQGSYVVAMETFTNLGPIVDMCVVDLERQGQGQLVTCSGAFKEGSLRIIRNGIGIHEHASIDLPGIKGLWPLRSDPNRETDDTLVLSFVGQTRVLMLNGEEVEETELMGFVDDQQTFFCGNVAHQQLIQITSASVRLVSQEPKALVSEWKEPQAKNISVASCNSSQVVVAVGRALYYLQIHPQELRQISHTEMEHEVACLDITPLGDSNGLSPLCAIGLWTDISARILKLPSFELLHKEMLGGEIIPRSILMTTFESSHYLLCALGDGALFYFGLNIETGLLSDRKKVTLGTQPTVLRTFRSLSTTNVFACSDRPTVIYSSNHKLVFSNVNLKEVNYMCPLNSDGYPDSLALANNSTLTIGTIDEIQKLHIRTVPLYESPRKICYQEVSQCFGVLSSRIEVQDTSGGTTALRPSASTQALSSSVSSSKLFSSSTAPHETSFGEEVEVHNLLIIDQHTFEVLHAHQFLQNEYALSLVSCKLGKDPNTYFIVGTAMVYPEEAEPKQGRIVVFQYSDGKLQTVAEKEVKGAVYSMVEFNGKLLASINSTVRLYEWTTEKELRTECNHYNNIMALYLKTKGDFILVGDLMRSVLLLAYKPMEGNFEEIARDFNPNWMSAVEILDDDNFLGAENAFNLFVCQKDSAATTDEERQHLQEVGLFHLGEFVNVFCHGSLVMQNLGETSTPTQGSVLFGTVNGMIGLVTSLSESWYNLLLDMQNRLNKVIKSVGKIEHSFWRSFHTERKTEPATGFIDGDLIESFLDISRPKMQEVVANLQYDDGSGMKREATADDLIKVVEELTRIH
Protocol: DCAF15 interactions with test compounds were monitored using HTRF competition assays (Cisbio, Bedford, MA). […] These two solutions were mixed and incubated for 15 min at room temperature. 9.8 ul of the tracer solution and 10 ul of the DCAF15/mAb Anti-6His-Eu cryptate Gold mixture were added sequentially to each well in the assay plate. Reaction mixtures with no DCAF15 added were included as […] controls. […] Binding was estimated based on ratiometric analysis and titration curves were generated in GraphPad Prism (7.00, GraphPad, La Jolla, CA).

[2] = AlphaLISA, His-tagged DCAF15 complex and biotin-carrying RBM39, read-out: Ternary-RBM39 (RRM2) EC50

T1 sequence (Q66K64 whole entry): as the sequence (Q66K64 whole entry) above
T1 sequence (Q14498 250-328 limits assumed): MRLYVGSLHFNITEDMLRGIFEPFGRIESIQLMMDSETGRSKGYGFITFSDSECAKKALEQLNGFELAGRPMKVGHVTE
T1 sequence (Q16531 whole entry partner): as the sequence (Q16531 whole entry partner) above

| Structure (SMILES) | EC50 [1, 2] [µM] | IC50 (DCAF15) [µM] | EC50 [1] [µM] |
| --- | --- | --- | --- |
| O=S(=O)(NCCCOCc1ccccc1)c1ccc(S(=O)(=O)Nc2ccc(Cl)c3c(Cl)c[nH]c23)cc1 [Compound 5, N^1-(3-(benzyloxy)propyl)-N^4-(3,4-dichloro-1H-indol-7-yl)benzene-1,4-disulfonamide] | < 20 | < 100 | – |
| COCCOCCCNS(=O)(=O)c1ccc(S(=O)(=O)Nc2ccc(Cl)c3c(Cl)c[nH]c23)cc1 [Compound 7, N^1-(3,4-dichloro-1H-indol-7-yl)-N^4-(3-(2-methoxyethoxy)propyl)benzene-1,4-disulfonamide] | < 5 | < 20 | – |
| Cc1ccc(NS(=O)(=O)c2ccc(S(=O)(=O)N3CCNCC3)cc2)c2[nH]cc(C#N)c12 [Compound 83, N-(3-cyano-4-methyl-1H-indol-7-yl)-4-(piperazin-1-ylsulfonyl)benzene sulfonamide] | < 1 | – | – |
| O=S(=O)(Nc1ccc(Cl)c2c(Cl)c[nH]c12)c1ccc(S(=O)(=O)NC2CCNCC2)cc1 [Compound 29, N^1-(3,4-dichloro-1H-indol-7-yl)-N^4-(piperidin-4-yl)benzene-1,4-disulfonamide] | < 1 | – | – |
| CCCC1CN(S(=O)(=O)c2ccc(S(=O)(=O)Nc3ccc(Cl)c4c(Cl)c[nH]c34)cc2)CCN1 (stereo not shown) [compound 110] | – | < 5 | – |
| O=S(=O)(Nc1ccc(C2CC2)c2c(Cl)c[nH]c12)c1ccc(S(=O)(=O)N2CCNCC2)cc1 [compound 147] | – | < 100 | – |
| CCS(=O)(=O)CCNS(=O)(=O)c1ccc(S(=O)(=O)Nc2ccc(Cl)c3c(Cl)c[nH]c23)cc1 [Compound 3, N^1-(3,4-dichloro-1H-indol-7-yl)-N^4-(2-(ethylsulfonyl)ethyl) benzene-1,4-disulfonamide] | < 1 | – | – |
| O=S1(=O)CCC(OCCNS(=O)(=O)c2ccc(S(=O)(=O)Nc3ccc(Cl)c4c(Cl)c[nH]c34)cc2)CC1 [Compound 4, N^1-(3,4-dichloro-1H-indol-7-yl)-N4_ (2-((1,1-dioxidotetrahydro-2H-thiopyran-4-yl)oxy)ethyl) benzene-1,4-disulfonamide] | < 1 | – | – |
| CCOC(=O)N1CCN(S(=O)(=O)c2ccc(S(=O)(=O)Nc3ccc(Cl)c4c(Cl)c[nH]c34)cc2)CC1 [Compound 49, ethyl 4-((4-(N-(3,4-dichloro-1H-indol-7-yl)sulfamoyl)phenyl)sulfonyl)piperazine-1-carboxylate] | < 5 | – | – |
| O=S(=O)(Nc1ccc(Cl)c2c(Cl)c[nH]c12)c1ccc(S(=O)(=O)NC2CCc3ccccc32)cc1 (stereo not shown) [Compound 34, N^1-(3,4-dichloro-1H-indol-7-yl)-N^4-(2,3-dihydro-1H-inden-1-yl)benzene-1,4-disulfonamide] | < 20 | – | – |
| Cc1ccc(NS(=O)(=O)c2ccc(S(=O)(=O)N3CCOCC3)cc2)c2[nH]cc(C#N)c12 [Compound 90, N-(3-cyano-4-methyl-1H-indol-7-yl)-4-(morpholinosulfonyl)benzene sulfonamide] | < 1 | – | – |
| Cc1ccc(NS(=O)(=O)c2ccc(S(=O)(=O)N3CCNC(=O)C3)cc2)c2[nH]cc(C#N)c12 [Compound 89, N-(3-cyano-4-methyl-1H-indol-7-yl)-4-((3-oxopiperazin-1-yl)sulfonyl)benzenesulfonamide] | < 1 | – | – |
| Cc1ccc(NS(=O)(=O)c2ccc(S(=O)(=O)N3CC4(CNC4)C3)cc2)c2[nH]cc(C#N)c12 [Compound 93, 4-((2,6-diazaspiro[3.3]heptan-2-yl)sulfonyl)-N-(3-cyano-4-methyl-1H-indol-7-yl)benzenesulfonamide] | < 1 | – | – |
| COCCN1CCN(S(=O)(=O)c2ccc(S(=O)(=O)Nc3ccc(C)c4c(C#N)c[nH]c34)cc2)CC1 [Compound 85, N-(3-cyano-4-methyl-1H-indol-7-yl)-4-((4-(2-methoxyethyl)piperazin-1-yl)sulfonyl)benzenesulfonamide] | < 1 | – | – |
| O=S(=O)(NCCOCC1CC1)c1ccc(S(=O)(=O)Nc2ccc(Cl)c3c(Cl)c[nH]c23)cc1 [Compound 6, N^1-(2-(cyclopropylmethoxy)ethyl)-N^4-(3,4-dichloro-1H-indol-7-yl)benzene-1,4-disulfonamide] | < 5 | – | – |
| CCN(CC)C(=O)c1ccc(CNS(=O)(=O)c2ccc(S(=O)(=O)Nc3ccc(Cl)c4c(Cl)c[nH]c34)cc2)cc1 [Compound 12, 4-(((4-(N-(3,4-dichloro-1H-indol-7-yl)sulfamoyl)phenyl)sulfonamido)methyl)-N,N-diethylbenzamid] | < 20 | – | – |
| COCCc1cn(-c2cccc(S(=O)(=O)Nc3ccc(C)c4c(C#N)c[nH]c34)c2)nn1 [Compound 97, N-(3-cyano-4-methyl-1H-indol-7-yl)-3-(4-(2-methoxyethyl)-1H-1,2,3-triazol-1-yl)benzenesulfonamide] | < 1 | – | – |
| CC1CNCCN1S(=O)(=O)c1ccc(S(=O)(=O)Nc2ccc(Cl)c3c(Cl)c[nH]c23)cc1 (stereo not shown) [Compound 46, N-(3,4-dichloro-1H-indol-7-yl)-4-((2-methylpiperazin-1-yl)sulfonyl)benzene sulfonamide] | < 1 | – | – |
| COc1cc(NS(=O)(=O)c2cccc(C#N)c2)c2[nH]cc(Cl)c2c1 [Compound 103, N-(3-chloro-5-methoxy-1H-indol-7-yl)-3-cyanobenzenesulfonamide] | < 1 | – | – |
| N#Cc1ccc(CCCN2CCN(S(=O)(=O)c3ccc(S(=O)(=O)Nc4ccc(Cl)c5c(Cl)c[nH]c45)cc3)CC2)cc1 [Compound 50, 4-((4-(3-(4-cyanophenyl)propyl)piperazin-1-yl)sulfonyl)-N-(3,4-dichloro-1H-indol-7-yl)benzenesulfonamide] | – | – | < 1 |
| O=S(=O)(Nc1ccc(Cl)c2c(Cl)c[nH]c12)c1ccc(Br)cc1 [Compound 75, 4-bromo-N-(3,4-dichloro-1H-indol-7-yl)benzenesulfonamide] | < 5 | – | – |
| O=S(=O)(NCCc1ccccn1)c1ccc(S(=O)(=O)Nc2ccc(Cl)c3c(Cl)c[nH]c23)cc1 [Compound 26, N^1-(3,4-dichloro-1H-indol-7-yl)-N^4-(2-(pyridin-2-yl)ethyl)benzene-1,4-disulfonamide] | < 5 | – | – |
| O=S(=O)(Nc1ccc(Cl)c2c(Cl)c[nH]c12)c1ccc(NS(=O)(=O)C2CCNCC2)cc1 [Compound 65, N-(4-(N-(3,4-dichloro-1H-indol-7-yl)sulfamoyl)phenyl)piperidine-4-sulfonamide] | < 5 | – | – |
| CCCN(c1ccc(S(=O)(=O)Nc2ccc(Cl)c3c(Cl)c[nH]c23)cc1)S(=O)(=O)C1CCN(C)CC1 [Compound 62, N-(4-(N-(3,4-dichloro-1H-indol-7-yl)sulfamoyl)phenyl)-1-methyl-N-propylpiperidine-4-sulfonamide] | < 1 | – | – |

More lines, main results first:

| EC50 [1, 2] [µM] | IC50 (DCAF15) [µM] | Structure (SMILES) | EC50 [1] [µM] |
| --- | --- | --- | --- |
| < 1 | < 5 | O=S(=O)(Nc1ccc(Cl)c2c(Cl)c[nH]c12)c1ccc(S(=O)(=O)C2CCNCC2)cc1 [Compound 57, N-(3,4-dichloro-1H-indol-7-yl)-4-(piperidin-4-ylsulfonyl)benzene sulfonamide] | – |
| < 1 | < 100 | O=S(=O)(Nc1ccc(Cl)c2c(Cl)c[nH]c12)c1ccc(S(=O)(=O)NC2CCOCC2)cc1 [Compound 28, N^1-(3,4-dichloro-1H-indol-7-yl)-N^4-(tetrahydro-2H-pyran-4-yl)benzene-1,4-disulfonamide] | – |
| < 5 | – | O=C(NS(=O)(=O)c1ccc(Br)s1)c1ccc(Cl)cc1Cl [Tasisulam, tasisulam, reference compound] | – |
| < 1 | – | CCC1CN(S(=O)(=O)c2ccc(S(=O)(=O)Nc3ccc(C)c4c(C#N)c[nH]c34)cc2)CCN1 (stereo not shown) [Compound 84, N-(3-cyano-4-methyl-1H-indol-7-yl)-4-((3-ethylpiperazin-1-yl)sulfonyl) benzenesulfonamide] | – |
| < 1 | – | CN1CCN(S(=O)(=O)c2ccc(S(=O)(=O)Nc3ccc(Cl)c4c(Cl)c[nH]c34)cc2)CC1 [Compound 48, N-(3,4-dichloro-1H-indol-7-yl)-4-((4-methylpiperazin-1-yl)sulfonyl)benzenesulfonamide] | – |
| < 1 | – | O=S(=O)(Nc1ccc(Cl)c2c(Cl)c[nH]c12)c1ccc(S(=O)(=O)N2CCCCC2)cc1 [Compound 37, N-(3,4-dichloro-1H-indol-7-yl)-4-(piperidin-1-ylsulfonyl)benzenesulfonamide] | – |
| < 1 | – | Cc1ccc(NS(=O)(=O)c2ccc(S(=O)(=O)N(C)C3CNC3)cc2)c2[nH]cc(C#N)c12 [Compound 79, N^1-(azetidin-3-yl)-N^4-(3-cyano-4-methyl-1H-indol-7-yl)-N^1-methylbenzene-1,4-disulfonamide] | – |
| < 1 | – | O=S(=O)(Nc1ccc(Cl)c2c(Cl)c[nH]c12)c1cccc(S(=O)(=O)N2CCNCC2)c1 [Compound 41, N-(3,4-dichloro-1H-indol-7-yl)-3-(piperazin-1-ylsulfonyl)benzenesulfonamide] | – |
| < 5 | – | O=S(=O)(Nc1cccc2cc[nH]c12)c1ccc(S(=O)(=O)N2CCNCC2)cc1 [compound 145] | – |
| < 1 | – | Cc1ccc(NS(=O)(=O)c2ccc(S(=O)(=O)N3CCCC(N)C3)cc2)c2[nH]cc(C#N)c12 (stereo not shown) [Compound 82, 4-((3-aminopiperidin-1-yl)sulfonyl)-N-(3-cyano-4-methyl-1H-indol-7-yl) benzenesulfonamide] | – |
| < 1 | – | Cc1ccc(NS(=O)(=O)c2cc(F)cc(C#N)c2)c2[nH]cc(C#N)c12 [Compound 98, 3-cyano-N-(3-cyano-4-methyl-1H-indol-7-yl)-5-fluorobenzenesulfonamide] | – |
| < 5 | – | C#CCOCCOCCOCC(=O)N(CCC)c1ccc(S(=O)(=O)Nc2ccc(Cl)c3c(Cl)c[nH]c23)cc1 [compound 132] | – |
